For assay [1], the system named is fecal samples from ten healthy subjects. Description: Ex vivo fermentation of the selected oligosaccharide composition in the presence of mesalamine: SCFA by GC-FID (Example 23). The assay is classed as cell-based, human. The conditions noted are these: 0.5, 2, 8, 32, 125, or 500 μM mesalamine with the composition. On the procedure:
5-aminosalicilic acids (5-ASA), such as mesalamine, are standard-of-care compounds for the treatment of patients with mild-to-moderate ulcerative colitis. The ability of the selected oligosaccharide composition to support the growth of microbial taxa in the presence of […] determined. Fecal samples from ten healthy subjects were incubated anaerobically in supplemented Clostridium minimal medium without (negative control) or with the selected oligosaccharide composition. Samples with the selected oligosaccharide composition were also incubated with 0.0, 0.5, 2, 8, 32, 125, or 500 μM mesalamine. Each fecal sample incubation was performed with three biological replicates. After incubation, samples were sedimented by centrifugation and culture supernatants were collected for SCFA quantification by GC-FID.

For assay [2], the system named is fecal microbiome of healthy subjects. Description: Ex vivo fermentation in the presence of mesalamine: 16S rRNA amplicon sequencing, Bray-Curtis dissimilarity (Example 23). Conditions: all 5-ASA concentrations tested; replicate sequencing dissimilarity 0.06 (S.D. 0.03). The assay is classed as cell-based, human. How it is done:
5-aminosalicilic acids (5-ASA), such as mesalamine, are standard-of-care compounds for the treatment of patients with mild-to-moderate ulcerative colitis. The ability of the selected oligosaccharide composition to support the growth of microbial taxa in the presence of mesaline was determined. Fecal samples from ten healthy subjects were incubated anaerobically in supplemented Clostridium minimal medium without (negative control) or with the selected oligosaccharide composition. Samples with the selected oligosaccharide composition were also incubated with 0.0, 0.5, 2, 8, 32, 125, or 500 μM mesalamine. Each fecal sample incubation was performed with three biological replicates. After incubation, samples were sedimented by centrifugation and culture supernatants were collected for SCFA quantification by GC-FID.
To understand if mesalamine influenced understand the shifts in taxonomic composition produced by incubation with the selected oligosaccharide composition, the fecal samples were characterized by 16S rRNA amplicon seuquencing. Genomic DNA was extracted from fecal samples using DNeasy PowerSoil extraction plates (Qiagen) and quantified using the Quant-iT PicoGreen dsDNA assay (Invitrogen). 16S rRNA libraries were prepared by PCR amplification with the 515F/806R primer set before sequencing on the Illumina NextSeq platform to at least 25 thousand reads. […]

As for `Nc1ccc(O)c(C(=O)O)c1` [mesalamine], the “effect on SCFA production by the selected oligosaccharide composition” value in assay [1] is “none of the samples incubated with mesalamine showed any significant differences in SCFA production”. Besides, the “mean Bray-Curtis dissimilarity to samples incubated with the composition and without mesalamine” value in assay [2] is 0.06 (S.D. 0.02).
